The source of these data is patent US11667606B2, “Thyromimetics” (Autobahn Therapeutics, Inc., priority 2019, dated 2023).

Experiment [1] concerns the target T1, TRβ (Homo sapiens, UniProt P10828).
T1 construct: expressed in transfected cells; host or cells: HEK293
T1 sequence (P10828 217-461 limits assumed): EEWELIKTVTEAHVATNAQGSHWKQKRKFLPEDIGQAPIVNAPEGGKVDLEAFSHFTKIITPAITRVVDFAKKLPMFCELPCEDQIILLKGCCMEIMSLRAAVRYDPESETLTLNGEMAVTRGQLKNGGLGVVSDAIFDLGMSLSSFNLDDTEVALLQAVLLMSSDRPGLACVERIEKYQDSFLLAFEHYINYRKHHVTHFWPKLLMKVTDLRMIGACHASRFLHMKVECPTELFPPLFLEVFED
The experiment can be described thus: Thyroid-hormone reporter-gene assay, TRβ (Gal4 DBD hybrid, luciferase, HEK293). The format is cell-based. The settings on record: for T3-SI, selectivity index (SI) calculated as EC50 (TRα)/EC50 (TRβ): TRβ over TRα selectivity from reporter-gene EC50 values; for EC50: reporter cells derived from HEK293, 24 hr incubation, luciferase readout. The protocol:
(§1) Compounds were tested for thyroid-hormone receptor activity using TR reporter-gene assays. Reporter cells used in the assays express a TR-receptor hybrid (either TRα or TRβ) in which the native N-terminal DNA binding domain (DBD) has been replaced with that of the yeast Gal4 DBD. The reporter gene, firefly luciferase, is functionally linked to the Gal4 upstream activation sequence (UAS). Both cell lines were derived from human embryonic kidney (HEK293).
(§2) A suspension of reporter cells was prepared in cell recovery medium containing 10% charcoal-stripped FBS, and dispensed into assay plates. The plates were pre-incubated for 6 hours in a cell culture incubator (37° C./5% CO2/85% humidity).
(§3) These intermediate stocks were subsequently diluted directly into compound screening medium containing 10% charcoal-stripped FBS to generate “2×-concentration” treatment media (containing 0.2, 0.4 or 0.8% DMSO).
(§4) At the end of the pre-incubation period, culture media were discarded from the assay plates, and all wells received 100 μl of compound screening medium. 100 μl of each of the previously prepared “2×-concentration” treatment media were dispensed into duplicate assay wells, thereby achieving the desired final treatment concentrations. The final concentration of DMSO in all assay wells was 0.1, 0.2 or 0.4%. Assay plates were incubated for 24 hr in a cell culture incubator (37° C./5% CO2/85% humidity).
(§5) At the 24 h assay endpoint, treatment media were discarded and […] of luciferase detection reagent was added. Relative luminometer units (RLUs) were quantified from each assay well.

Experiment [2] concerns the target T2, TRα (Homo sapiens, UniProt P10827).
T2 construct: expressed in transfected cells; host or cells: HEK293
T2 sequence (P10827 128-410 isoform P10827-2 limits assumed): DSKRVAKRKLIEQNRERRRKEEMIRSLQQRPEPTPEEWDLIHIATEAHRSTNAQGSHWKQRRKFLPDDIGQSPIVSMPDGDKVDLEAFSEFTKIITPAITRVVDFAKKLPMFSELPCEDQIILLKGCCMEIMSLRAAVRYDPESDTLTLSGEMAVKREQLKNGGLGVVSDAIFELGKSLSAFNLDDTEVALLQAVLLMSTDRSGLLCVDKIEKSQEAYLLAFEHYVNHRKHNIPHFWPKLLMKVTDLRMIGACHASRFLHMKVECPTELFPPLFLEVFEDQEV
The experiment is described as follows: Thyroid-hormone reporter-gene assay, TRα (Gal4 DBD hybrid, luciferase, HEK293). The format is cell-based. The settings on record: reporter cells derived from HEK293, 24 hr incubation, luciferase readout. Here is the method: as §1, §2, §3, §4, §5

As usually defined, the EC50 is the concentration that produces a half-maximal response. Lower therefore signals higher potency in that assay. As to `O=C(O)COc1cc(Cl)c(Cc2ccc(O)c(-c3ccoc3)c2)c(Cl)c1` [Compound 40, 2-(3,5-dichloro-4-(3-(furan-3-yl)-4-hydroxybenzyl)phenoxy)acetic acid], in experiment [1], the “T3-SI, selectivity index (SI) calculated as EC50 (TRα)/EC50 (TRβ)” value (“T3-SI, selectivity index (SI) calculated” below) is listed as “++ (3X < T3-SI ≤ 30X)” and the EC50 was over 1000 nM. For the same molecule, in experiment [2], the EC50 was over 1000 nM.

Regarding `O=C(O)COc1cc(Cl)c(Cc2ccc(O)c(-c3ccsc3)c2)c(Cl)c1` [Compound 42, 2-(3,5-dichloro-4-(4-hydroxy-3-(thiophen-3-yl)benzyl)phenoxy)acetic acid], in experiment [1], the “T3-SI, selectivity index (SI) calculated” value is reported as “++ (3X < T3-SI ≤ 30X)” and the EC50 fell in the range of 100 to 1000 nM. The molecule further came in with an EC50 in experiment [2] of over 1000 nM.

Take `O=C(O)COc1cc(Cl)c(Cc2ccc(O)c(-c3csc(Cl)c3)c2)c(Cl)c1` [Compound 43, 2-(3,5-dichloro-4-(3-(5-chlorothiophen-3-yl)-4-hydroxybenzyl)phenoxy) acetic Acid]: in experiment [1], the “T3-SI, selectivity index (SI) calculated” value was “++ (3X < T3-SI ≤ 30X)” and the EC50 is 100 to 1000 nM. Also, the EC50 in experiment [2] was over 1000 nM.

Regarding `O=C(O)COc1cc(Cl)c(Cc2ccc(O)c(-c3cc(C(F)(F)F)ccc3F)c2)c(Cl)c1` [Compound 45, 2-(3,5-dichloro-4-((2′-fluoro-6-hydroxy-5′-(trifluoromethyl)-[1,1′-biphenyl]-3-yl)methyl)phenoxy)acetic Acid], in experiment [1], the “T3-SI, selectivity index (SI) calculated” value is “++ (3X < T3-SI ≤ 30X)”. Also, the concentration for a half-maximal effect (EC50) in experiment [1] was 10 to 100 nM; in experiment [2] it was 100 to 1000 nM.

Consider `O=C(O)COc1cc(Cl)c(Cc2ccc(O)c(-c3cccc(C(F)(F)F)c3F)c2)c(Cl)c1` [Compound 49, 2-(3,5-dichloro-4-((2′-fluoro-6-hydroxy-3′-(trifluoromethyl)-[1,1′-biphenyl]-3-yl)methyl)phenoxy)acetic Acid], for which, in experiment [1], the “T3-SI, selectivity index (SI) calculated” value is reported as “++ (3X < T3-SI ≤ 30X)” and the EC50 lay in the range of 100 to 1000 nM. The molecule also came in with an EC50 in experiment [2] of over 1000 nM.

Consider `CCc1ccc(F)c(-c2cc(Cc3c(Cl)cc(OCC(=O)O)cc3Cl)ccc2O)c1` [Compound 51, 2-(3,5-dichloro-4-((5′-ethyl-2′-fluoro-6-hydroxy-[1,1′-biphenyl]-3-yl)methyl)phenoxy)acetic Acid], for which, in experiment [1], the “T3-SI, selectivity index (SI) calculated” value is “++ (3X < T3-SI ≤ 30X)”. Further, the EC50 in experiment [1] and in experiment [2] was over 1000 nM each time.

As for `O=C(O)COc1cc(Cl)c(Cc2ccc(O)c(-c3cc(OC(F)F)ccc3F)c2)c(Cl)c1` [Compound 52, 2-(3,5-dichloro-4-((5′-(difluoromethoxy)-2′-fluoro-6-hydroxy-[1,1′-biphenyl]-3-yl)methyl)phenoxy)acetic Acid], in experiment [1], the “T3-SI, selectivity index (SI) calculated” value is “++ (3X < T3-SI ≤ 30X)”. Besides, the EC50 in experiment [1] lay in the range of 10 to 100 nM; in experiment [2], 100 to 1000 nM.

Consider `O=C(O)COc1cc(Cl)c(Cc2ccc(O)c(-c3cc(F)cc(OC(F)F)c3)c2)c(Cl)c1` [Compound 54, 2-(3,5-dichloro-4-((3′-(difluoromethoxy)-5′-fluoro-6-hydroxy-[1,1′-biphenyl]-3-yl)methyl)phenoxy)acetic Acid], for which, in experiment [1], the “T3-SI, selectivity index (SI) calculated” value is recorded as “++ (3X < T3-SI ≤ 30X)” and the EC50 is 100 to 1000 nM. For the same molecule, the EC50 in experiment [2] is over 1000 nM.

Consider `O=C(O)COc1cc(Cl)c(Cc2ccc(O)c(-c3cccc(OC(F)F)c3F)c2)c(Cl)c1` [Compound 56, 2-(3,5-dichloro-4-((3′-(difluoromethoxy)-2′-fluoro-6-hydroxy-[1,1′-biphenyl]-3-yl)methyl)phenoxy)acetic Acid], for which, in experiment [1], the “T3-SI, selectivity index (SI) calculated” value is reported as “++ (3X < T3-SI ≤ 30X)” and the EC50 fell in the range of 100 to 1000 nM. The EC50 in experiment [2] is over 1000 nM.

In the case of `CCc1cccc(-c2cc(Cc3c(C)cc(OCC(=O)O)cc3Cl)ccc2O)c1` [Compound 60, 2-(3-chloro-4-((3′-ethyl-6-hydroxy-[1,1′-biphenyl]-3-yl)methyl)-5-methylphenoxy)acetic Acid], in experiment [1], the “T3-SI, selectivity index (SI) calculated” value is on record as “+++ (T3-SI > 30X)” and the EC50 lay within 100 to 1000 nM. Moreover, the EC50 in experiment [2] was over 1000 nM.
